According to the NIST ThermoML archive (doi:10.1016/j.tca.2010.06.014):
“And” between values parts separate entries of the source, which are not always exact repeats. Equal values may be shown once.

Conditions: Liquid, DSC

O=[N+]([O-])OCC(CO[N+](=O)[O-])O[N+](=O)[O-] [nitroglycerin]
Conditions | vapor or sublimation pressure
298.15 K | 7e-05 kPa and 7.1e-05 kPa
303.15 K | 0.00014 kPa and 0.000137 kPa
313.15 K | 0.00046 kPa and 0.000462 kPa
323.15 K | 0.0014 kPa and 0.001402 kPa
333.15 K | 0.00387 kPa and 0.003866 kPa
343.15 K | 0.00981 kPa and 0.009811 kPa
353.15 K | 0.02313 kPa
363.15 K | 0.05111 kPa
373.15 K | 0.1066 kPa
383.15 K | 0.211 kPa
393.15 K | 0.3988 kPa
403.15 K | 0.7228 kPa
413.15 K | 1.261 kPa
423.15 K | 2.127 kPa
433.15 K | 3.475 kPa
443.15 K | 5.519 kPa
453.15 K | 8.539 kPa
463.15 K | 12.9 kPa
473.15 K | 19.06 kPa
483.15 K | 27.59 kPa
493.15 K | 39.2 kPa
503.15 K | 54.73 kPa
513.15 K | 75.19 kPa
523.15 K | 101.77 kPa
